Reference: ChEMBL document CHEMBL1201862, “PubChem BioAssay data set” (2004)
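Following 48 hours of exposure in 96-well plates, responses at five concentrations were used to interpolate endpoints linearly. GI50 marks 50% less growth.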 The source made the active and inactive calls. No stated cut-off is given here; in the data, active = GI50 up to about 1.1 µM and inactive = higher. Bridge positions count the residues as written; N and C are the ends. Square brackets hold non-standard residues; d marks the D form. Peptide text beside a SMILES is read from it. * marks the point of attachment. Cbz = O=C(OCc1ccccc1)*; Dab = NCC[CH](N)C(=O)O; Bn = c1ccc(C*)cc1

What was measured:
Assay in all cases: growth of human tumour cells (NCI), 48 h
CAKI-1 = tested on: CAKI-1
CCRF-CEM = tested on: CCRF-CEM
EKVX = tested on: EKVX
HCT-116 = tested on: HCT-116
HCT-15 = tested on: HCT-15
KM12 = tested on: KM12
LOX IMVI = tested on: LOX IMVI
M14 = tested on: M14
Malme-3M = tested on: Malme-3M
NCI-H522 = tested on: NCI-H522
OVCAR-4 = tested on: OVCAR-4
SK-MEL-2 = tested on: SK-MEL-2
SNB-19 = tested on: SNB-19
SNB-75 = tested on: SNB-75
TK-10 = tested on: TK-10
UO-31 = tested on: UO-31
DU-145 = tested on: DU-145
PC-3 = tested on: PC-3
BT-549 = tested on: BT-549

SMILES	GI50 (CAKI-1)	GI50 (CCRF-CEM)	GI50 (EKVX)	GI50 (HCT-116)	GI50 (HCT-15) [µM]	GI50 (KM12)	GI50 (LOX IMVI)	GI50 (M14)	GI50 (Malme-3M)	GI50 (NCI-H522)	GI50 (OVCAR-4)	GI50 (SK-MEL-2)	GI50 (SNB-19)	GI50 (SNB-75)	GI50 (TK-10)	GI50 (UO-31)	GI50 (DU-145)	GI50 (PC-3)	GI50 (BT-549)
Nc1ncnc2c1ncn2CC(O)CO (centres undefined)	> 100 µM (inactive)	> 100 µM (inactive)	> 100 µM (inactive)	> 100 µM (inactive)	> 100	> 100 µM (inactive)	> 100 µM (inactive)	> 100 µM (inactive)	> 100 µM (inactive)	> 100 µM (inactive)	> 100 µM (inactive)	> 100 µM (inactive)	> 100 µM (inactive)	> 100 µM (inactive)	> 100 µM (inactive)	> 100 µM (inactive)	–	–	–
c1cc2c(cnc3cscc32)s1	95.5 µM (inactive)	> 100 µM (inactive)	–	> 100 µM (inactive)	> 100	> 100 µM (inactive)	> 100 µM (inactive)	> 100 µM (inactive)	> 100 µM (inactive)	> 100 µM (inactive)	> 100 µM (inactive)	> 100 µM (inactive)	> 100 µM (inactive)	57.7 µM (inactive)	> 100 µM (inactive)	> 100 µM (inactive)	–	–	–
Cc1ccc(NS(=O)(=O)c2cc(C(C)(C)C)ccc2OCCOCCOCCOc2ccc(C(C)(C)C)cc2S(=O)(=O)Nc2ccc(C)cc2)cc1	> 100 µM (inactive)	> 100 µM (inactive)	> 100 µM (inactive)	> 100 µM (inactive)	> 100	> 100 µM (inactive)	> 100 µM (inactive)	> 100 µM (inactive)	> 100 µM (inactive)	–	> 100 µM (inactive)	> 100 µM (inactive)	> 100 µM (inactive)	> 100 µM (inactive)	> 100 µM (inactive)	> 100 µM (inactive)	–	–	–
CC1=NN(C(=O)Cc2ccccc2)C(=O)/C1=C\C=C\c1ccccc1	> 100 µM (inactive)	> 100 µM (inactive)	> 100 µM (inactive)	> 100 µM (inactive)	> 100	> 100 µM (inactive)	> 100 µM (inactive)	> 100 µM (inactive)	> 100 µM (inactive)	> 100 µM (inactive)	> 100 µM (inactive)	> 100 µM (inactive)	> 100 µM (inactive)	> 100 µM (inactive)	> 100 µM (inactive)	> 100 µM (inactive)	–	–	–
CCOP(=O)(OCC)/C(C#N)=C/c1ccccn1	> 100 µM (inactive)	> 100 µM (inactive)	> 100 µM (inactive)	> 100 µM (inactive)	> 100	> 100 µM (inactive)	> 100 µM (inactive)	> 100 µM (inactive)	> 100 µM (inactive)	> 100 µM (inactive)	> 100 µM (inactive)	–	> 100 µM (inactive)	> 100 µM (inactive)	> 100 µM (inactive)	–	> 100 µM (inactive)	–	–
COC1=CC(=O)C(C2(OC(C)C)OC(=O)C(Cl)=C2Cl)=CC1=O (centres undefined)	> 100 µM (inactive)	82.4 µM (inactive)	> 100 µM (inactive)	> 100 µM (inactive)	> 100	> 100 µM (inactive)	64.1 µM (inactive)	> 100 µM (inactive)	> 100 µM (inactive)	25.8 µM (inactive)	–	29.4 µM (inactive)	> 100 µM (inactive)	> 100 µM (inactive)	> 100 µM (inactive)	74.5 µM (inactive)	> 100 µM (inactive)	> 100 µM (inactive)	–
O/N=C1/COC(C(F)(F)F)(C(F)(F)F)C1	> 100 µM (inactive)	–	> 100 µM (inactive)	> 100 µM (inactive)	> 100	> 100 µM (inactive)	> 100 µM (inactive)	> 100 µM (inactive)	> 100 µM (inactive)	> 100 µM (inactive)	> 100 µM (inactive)	> 100 µM (inactive)	> 100 µM (inactive)	> 100 µM (inactive)	> 100 µM (inactive)	> 100 µM (inactive)	> 100 µM (inactive)	> 100 µM (inactive)	–
O=C1C=C(Nc2ccccc2C(=O)CC(=O)C(=O)Nc2ccc(Cl)c(Cl)c2)c2ccccc2C1=O	87.3 µM (inactive)	4.76 µM (inactive)	> 10 µM (inactive)	> 10 µM (inactive)	20.4	59.6 µM (inactive)	–	32.1 µM (inactive)	12.6 µM (inactive)	18.6 µM (inactive)	59.4 µM (inactive)	30.6 µM (inactive)	37.5 µM (inactive)	–	–	50.7 µM (inactive)	–	–	–
COC(=O)[C@@H](NC1(c2ccccc2)c2ccccc2-c2ccccc21)[C@H](OC(=O)[C@H]1CCCN1S(=O)(=O)c1ccccc1)C(=O)OC	–	> 100 µM (inactive)	99.5 µM (inactive)	> 100 µM (inactive)	> 100	> 100 µM (inactive)	> 100 µM (inactive)	> 100 µM (inactive)	> 100 µM (inactive)	82.2 µM (inactive)	> 100 µM (inactive)	39.8 µM (inactive)	> 100 µM (inactive)	63.2 µM (inactive)	> 100 µM (inactive)	> 100 µM (inactive)	> 100 µM (inactive)	> 100 µM (inactive)	–
CCOC(=O)C(NC(=O)c1nc[nH]c1/N=N/N(C)C)C(C)C (centres undefined)	> 100 µM (inactive)	> 100 µM (inactive)	> 100 µM (inactive)	> 100 µM (inactive)	> 100	> 100 µM (inactive)	> 100 µM (inactive)	> 100 µM (inactive)	> 100 µM (inactive)	> 100 µM (inactive)	> 100 µM (inactive)	> 100 µM (inactive)	> 100 µM (inactive)	> 100 µM (inactive)	> 100 µM (inactive)	> 100 µM (inactive)	–	–	–
COc1ccc(N2C(=O)C(C#N)=C(SC)C(C#N)C2=O)cc1 (centres undefined)	> 100 µM (inactive)	> 100 µM (inactive)	> 100 µM (inactive)	> 100 µM (inactive)	> 100	> 100 µM (inactive)	> 100 µM (inactive)	> 100 µM (inactive)	> 100 µM (inactive)	> 100 µM (inactive)	> 100 µM (inactive)	> 100 µM (inactive)	66.5 µM (inactive)	47.1 µM (inactive)	> 100 µM (inactive)	–	–	> 100 µM (inactive)	> 100 µM (inactive)
CC(C)CC1NC(=O)C(Cc2ccccc2)NC(=O)C(Cc2ccccc2)NC(=O)C(NC(=O)C(Cc2ccc(OCc3ccccc3)cc2)NC(=O)OCc2ccccc2)CCNC1=O (centres undefined) (Cbz-Y(Bn)[Dab]FFL; lactam 2-C; configuration not given here)	> 100 µM (inactive)	33.7 µM (inactive)	> 100 µM (inactive)	> 100 µM (inactive)	41.3	64.7 µM (inactive)	> 100 µM (inactive)	18.6 µM (inactive)	74.3 µM (inactive)	23 µM (inactive)	47.2 µM (inactive)	–	> 100 µM (inactive)	–	32.6 µM (inactive)	–	> 100 µM (inactive)	68.2 µM (inactive)	–
